Measured values taken from patent publication US5079247A, “N^1 -substituted benz(cd)indol-2-imine compounds as cardiovascular agents” (American Cyanamid Company, priority 1990, dated 1992).
Structures can show the parent of a compound that is named as a salt.

Experiments:
[1] = biological target: T1, thromboxane synthetase enzyme (Rattus norvegicus, UniProt P49430); test: Thromboxane synthetase enzyme inhibition (TXB2 formation in platelet suspension, RIA); assay type: cell-based, Okamoto-Aoki spontaneously hypertensive rats (SHR); details: concentration 1 × 10^-4 M; SHR platelet suspension, 10 minutes at 37° C.
T1 construct: The platelets were isolated by centrifuging the PRP for 10 minutes; from tissue; host or cells: washed platelets from arterial blood of Okamoto-Aoki spontaneously hypertensive rats (animals from Taconic Farms)
T1 sequence (P49430 1-533): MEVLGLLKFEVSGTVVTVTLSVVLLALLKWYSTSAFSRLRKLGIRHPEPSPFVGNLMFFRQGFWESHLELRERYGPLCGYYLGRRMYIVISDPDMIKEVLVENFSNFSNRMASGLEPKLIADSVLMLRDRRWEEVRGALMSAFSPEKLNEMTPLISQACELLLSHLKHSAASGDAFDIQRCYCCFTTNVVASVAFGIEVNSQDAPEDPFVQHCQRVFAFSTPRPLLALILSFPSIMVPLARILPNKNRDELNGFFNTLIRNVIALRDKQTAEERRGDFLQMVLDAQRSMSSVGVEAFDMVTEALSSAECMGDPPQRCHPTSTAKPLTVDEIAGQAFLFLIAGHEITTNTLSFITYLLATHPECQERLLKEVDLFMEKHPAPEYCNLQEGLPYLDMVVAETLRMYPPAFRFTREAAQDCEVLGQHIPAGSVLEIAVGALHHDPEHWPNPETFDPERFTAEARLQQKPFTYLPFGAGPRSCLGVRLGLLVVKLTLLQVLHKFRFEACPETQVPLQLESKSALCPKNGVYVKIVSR
Protocol: Under urethan anethesia, […] of arterial blood from Okamoto-Aoki spontaneously hypertensive rats (SHR) (Taconic Farms, Germantown, New York) between 19 and 24 weeks in age was collected in 1 ml of 3.2% sodium citrate in a polystyrene tube. The blood was diluted with 3 ml of cold saline and centrifuged at room temperature for 15 minutes at 460Xg. The platelet rich plasma (PRP) was separated. The platelets were isolated by centrifuging the PRP for 10 minutes at 1060Xg and were washed in 4 ml of cold oxygenated Krebs phosphate buffer, pH 7.4. The chilled platelets, recovered from centrifuging at 800Xg for 10 minutes, were resuspended in oxygenated Krebs phosphate buffer and diluted to contain 4.5-6.0×10^4 platelets/μl. The inhibition of thromboxane (TX) formation was studied by determining the concentration of thromboxane B2 (TXB2), the stable hydrolysis product of TXA2. Assay samples, prepared on ice, contained 200 μl platelet suspension, 50 μl saline, and 50 μl vehicle or drug under study at a concentration of 1×10^-4 M. The samples were incubated for 10 minutes at 37° C. in metabolic shaker. The reaction was terminated by immersing the tubes in an ice bath and adding 50 μl of 0.5M citric acid. The samples were centrifuged for 10 minutes in a refrigerated centrifuge and the supernatants thus obtained were decanted and stored at -20° C. The TXB2 content for each sample was determined by a direct radioimmunoassay (RIA) utilizing a TXB2 specific RIA kit purchased from New England Nuclear, Boston, Massachusetts and expressed as pg TXB2 formed minute^-1 sample^-1, from which the percent inhibition of TXB2 formation was calculated.

[2] = tested on: CaCl2-induced cardiac arrhythmias, fibrillation and cardiac death in mice; test: Antiarrhythmic/antifibrillatory activity in anesthetized mice, calcium chloride challenge; assay type: in vivo, mice of the Swiss Webster Strain; details: Mus musculus, iv, 0.25 h, calcium chloride 200 mg/kg i.v., read-out: CaCl2 Mice Surviving / Mice Tested (converted); for responders at 10 mg/kg: Dose = 10 mg/kg I.V., 15 minutes observation
Description: (§1) Intravenous administration of high doses of calcium or potassium chloride in animals produces cardiac arrhythmias, cardiac fibrillation and cardiac arrest. Any agent that can prevent these events is considered an antiarrhythmic/antifibrillatory agent. (Meth. and Find Exptl. Clin Pharmacal.2:223-252(1980); Pharmacol Ther. 24:401-433 (1984); Experimental Cardiac and Antiarrhythmic Drugs, L. Szekeres and Gy. J. Dapp, Akademiai Kiado Preso, Budapest, 9-448 (1971)).
(§2) The method employed is as follows: Male mice of the Swiss Webster Strain (Charles River, Wilmington, MA) weighing 25-35 g were anesthetized with ethyl carbamate (urethan) (1.5g/kg body weight i.p.). A 25-gauge needle attached to PE-20 tubing was inserted into a caudal vein for drug administration. The lead II ECG was recorded by needle electrodes placed subcutaneously in the limbs. All data were collected on a Gould Brush recorder. Animals were observed 5 minutes before drug administration. A 5, 15 or 30 minute period following drug administration was allowed before the bolus injection of calcium chloride, 200 mg/ kg i.v. or potassium chloride, 62.5 mg/kg i.v. Control mice received 4 ml/kg of 0.9% sodium chloride i.v. Mice were observed an additional 15 minutes for arrhythmias,fibrillation, survival or death. Any compound at a dose of less than 20 mg/kg i.v. in either test that protects from cardiac death 3 or more mice out of 6 mice, is considered active.

[3] = tested on: KCl-induced cardiac arrhythmias, fibrillation and cardiac death in mice; test: Antiarrhythmic/antifibrillatory activity in anesthetized mice, potassium chloride challenge; assay type: in vivo, mice of the Swiss Webster Strain; details: Mus musculus, iv, 0.25 h, potassium chloride 62.5 mg/kg i.v.; for responders at 10 mg/kg: Dose = 10 mg/kg I.V., 15 minutes observation, read-out: KCl Mice Surviving / Mice Tested (converted)
Description: as §1, §2

[4] = tested on: spontaneously hypertensive rats of the Okamoto strain; test: Hypotensive activity in spontaneously hypertensive rats (method of Chan and Poorvin); assay type: in vivo, rat; details: by gavage, 100 mg/kg or less, two doses 24 hours apart; MABP at 28 hours after initial dose; average baseline MABP 160±1.5 mm of mercury
Protocol: The novel compounds of the present invention are active hypotensive agents and were tested for hypotensive activity by the method of P. S. Chan and D. Poorvin, Clinical and Experimental Hypertension, 1 (6), 817-830 (1979). Male, 16 week old, spontaneously hypertensive rats of the Okamoto strain, from Taconic Farms, Germantown, New York, having an average mean arterial blood pressure of 160±1.5 mm of mercury, were used in the test. One to 3 rats were used per test compound. […] A second identical dose of the test compound, without sodium chloride loading was given 24 hours later. At 28 hours after the initial dose the mean arterial blood pressure (MABP) was measured. The procedure was repeated in a second and third rat when necessary.

SMILES	inhibition at 100 µM [1] [%]	responders at 10 mg/kg [2] [%]	responders at 10 mg/kg [3] [%]	further results
N#CCCCCN1C(=NCCCn2ccnc2)c2cccc3cccc1c23 [Example 15, 2-[[3-(1H-Imidazol-1 yl)propyl]imino]benz[cd]indole-1(2H)-pentanenitrile]	94	16.7	50	
CCN(CC)CC(=O)Nc1c(C)cccc1C [Lidocaine, reference compound]		83.3	50	
c1ccc(CN2C(=NCCCCc3cccnc3)c3cccc4cccc2c34)cc1 [Example 29, N-[1-(Phenylmethyl)benz[cd]indol-2(1H)-ylidene]-3-pyridinebutanamine, (E)-2 butenedioate (1:2)]		33.3	66.7	
c1ccc(CCCN2C(=NCCCn3ccnc3)c3cccc4cccc2c34)cc1 [Example 13, N-[1-(3-Phenylpropyl)benz[cd]indol-2(1H)-ylidene]-1H-imidazole-1-propanamine, (E)-2-butenedioate (1:2)]	92			
CN1C(=NCCCn2ccnc2)c2cccc3c(CO)ccc1c23 [Example 21, 1,2-Dihydro-2-[[3-(1H-imidazol-1-yl)propyl]imino]-1-methylbenz[cd]indole-6-methanol, (E)-2-butanedioate (1:1)]		43.8	83.3	
CCN(CC)CCN1C(=NCc2cccnc2)c2cccc3cccc1c23 [Example 25, N,N-Diethyl-2-[(3-pyridinylmethyl)imino]benz[cd]indol-1(2H)ethanamine, (E)-2-butenedioate (2:3)]	91	16.7	50	
CCCCCCN1C(=NCCCCc2cccnc2)c2cccc3cccc1c23 [Example 33, N-(1-Hexylbenz[cd]indol-2(1H)-ylidene)-3-pyridinebutanamine, (E)-2-butenedioate (2:3)]	93			
Cl.Cl.c1ccc(OCCCN2C(=NCCCn3ccnc3)c3cccc4cccc2c34)cc1 [Example 12, N-[1-(3-Phenoxypropyl)benz[cd]indol-2(1H)-ylidene]-1H-imidazole-1-propanamine, dihydrochloride]	90			Avg. MABP in mm Hg (No. of Rats) [4]: 122 mm Hg
CCN(CC)CCNC(=O)c1ccc(N)cc1 [Procainamide, reference compound]				responders at 5 mg/kg ([3]; 5 mg/kg i.v., read-out: KCl Mice Surviving / Mice Tested): 70%
c1ccc(CN2C(=NCCCn3ccnc3)c3cccc4cccc2c34)cc1 [Example 5, N-[1-(Phenylmethyl)benz[cd]indol-2 (1H)-ylidene]-1H-imidazole-1-propanamine]		83.3	83.3	
c1ccc(C(c2ccccc2)N2C(=NCCCCc3cccnc3)c3cccc4cccc2c34)cc1 [Example 30]		16.7	83.3	
C=C[C@H]1C[N@@]2CC[C@H]1C[C@@H]2[C@@H](O)c1ccnc2ccc(OC)cc12 [Quinidine, reference compound]				responders at 15 mg/kg ([2]; 15 mg/kg i.v.): 75%; responders at 15 mg/kg ([3]; 15 mg/kg i.v., read-out: KCl Mice Surviving / Mice Tested): 30%
COc1cccc(CN2C(=NCCCn3ccnc3)c3cccc4cccc2c34)c1 [Example 14, N-[1-[(3Methoxyphenyl)methyl]benz[cd]indol-2(1H)-ylidene]-1H-imidazole-1-propanamine]		16.7	66.7	Avg. MABP in mm Hg (No. of Rats) [4]: 104 mm Hg
c1cc2c3c(cccc3c1)N(CCCN1C(=NCCCn3ccnc3)c3cccc4cccc1c34)C2=NCCCn1ccnc1 [Example 20, N,N'-[1,3-Propanediylbis(benz[cd]indol-1(2H)-ylidene)]bis-1H-imidazole-1-propanamine]		66.7	0	
c1ccc(C(c2ccccc2)N2C(=NCCCn3ccnc3)c3cccc4cccc2c34)cc1 [Example 7, N-[1 (Diphenylmethyl)benz[cd]indol-2(1H)-ylidene]-1H-imidazole-1 propanamine]	75	16.7	83.3	
CCCCCCN1C(=NCCCn2ccnc2)c2cccc3cccc1c23 [Example 16, N-(1-Hexylbenz[cd]indol-2(1H)-ylidene)-1H-imidazole 1-propanamine, (E)-2-butenedioate (1:2)]	94			
c1cncc(CCCCN=C2c3cccc4cccc(c34)N2Cc2cccnc2)c1 [Example 31, N-[1-(3-Pyridinylmethyl)benz[cd]indol 2(1H)-ylidene]-3-pyridinebutanamine, dihydrochloride]	96			Avg. MABP in mm Hg (No. of Rats) [4]: 119 mm Hg
c1ccc(CN2C(=NCCCn3ccnc3)c3cccc4cccc2c34)cc1 [Example 6, N-[1-(Phenylmethyl)benz[cd]indol-2(1H)-ylidene]-1H-imidazole-1-propanamine,(E)-2-butenedioate (1:2)]	90			
CCN(CC)CCN1C(=NCCCn2ccnc2)c2cccc3cccc1c23 [Example 17, N,N-Diethyl-2-[[3-(1H-imidazol-1-yl)propyl]imino]benz[cd]indole-1(2H)-ethanamine, (E)-2butenedioate (1:3)]		16.7	66.7	
CN1C(=NCCCCn2ccnc2)c2cccc3cccc1c23 [Example 22, N-(1-Methylbenz[cd]indol-2(1H)-ylidene)-1H-imidazole-1-butanamine]				Avg. MABP in mm Hg (No. of Rats) [4]: 112 mm Hg
CN1C(=NCCCn2ccnc2)c2cccc3cccc1c23 [Example 18, N-[1-Methylbenz[cd]indol-2(1H)-ylidene]-1H-imidazole-1-propanamine, (E)-2-butenedioate (1:2)]		0	66.7	
